Source: patent US12180207B2 (ARRAY BIOPHARMA INC., priority 2018, dated 2024)

Assays:
[1] = molecular target: dephosphorylated FGFR1 (SEQ ID NO: 1, amino acids 458 to 765) (Homo sapiens (Human), UniProt P11362); assay: FGFR enzyme binding assay (HTRF tracer displacement), FGFR1; settings: 5 nM dephosphorylated FGFR1, average of multiple determinations if made
Summary of the method: (§1)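 Compounds were tested for displacement of a tracer from human FGFR kinase in a time-resolved FRET binding format. After 60 minutes at 22° C, signal was read at two wavelengths and converted to percent of control, normalised between untreated wells and 1 μM reference inhibitor.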

[2] = molecular target: FGFR1 (SEQ ID NO: 1, amino acids 458-765) (Homo sapiens (Human), UniProt P11362); assay: LC/MS FGFR1 kobs assay (covalent protein modification); type: binding; settings: 500 nM FGFR1, 3 μM compound
Chain of FGFR1 (SEQ ID NO: 1, amino acids 458-765) (P11362 458-765): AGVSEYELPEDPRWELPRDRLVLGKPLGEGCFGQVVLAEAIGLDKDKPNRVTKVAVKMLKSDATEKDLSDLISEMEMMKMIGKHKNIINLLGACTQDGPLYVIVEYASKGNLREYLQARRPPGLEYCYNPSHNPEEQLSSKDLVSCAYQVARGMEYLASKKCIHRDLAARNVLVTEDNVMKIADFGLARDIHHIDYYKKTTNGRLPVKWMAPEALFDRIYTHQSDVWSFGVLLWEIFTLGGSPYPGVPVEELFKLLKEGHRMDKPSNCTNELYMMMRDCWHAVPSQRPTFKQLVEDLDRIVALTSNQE
Method: The LC/MS FGFR1 and FGFR3 kobs assays were conducted as follows. […] At each time point, the reaction was quenched with 20 μL of 0.4% formic acid. The extent of protein modification by each compound was determined by LC/MS on an Agilent Technologies 6520 Q-TOF LC/MS. Protein signals were then automatically deconvoluted using Agilent Masshunter software. Deconvoluted mass signals were exported to Tibco Spotfire data analysis program for further processing and normalization.
Data analysis included five steps. First, the signals for the “DMSO Controls” were analyzed to determine the percent of signal associated with unmodified FGFR1 or FGFR3 at each time point. Next, the percent of the signal associated with the covalent modification was determined. Third, the average nonmodified “DMSO Control” signal was used to normalize the modified protein signals at each time point. The percent of unmodified protein was fit to an exponential decay model where A0 is the Percent Unmodified at the start of the reaction, and kobs is the observed rate constant over the time period.

[3] = molecular target: recombinant human FGFR2 cytoplasmic domain (amino acids 403-822) (Homo sapiens (Human), UniProt P21802); assay: FGFR2 enzyme activity assay (LanthaScreen TR-FRET); type: biochemical; settings: 15 μM ATP, 20 min incubation at 22° C., average of multiple determinations if made, read-out: FGFR2 Enz FRET IC50
Chain of recombinant human FGFR2 cytoplasmic domain (amino acids 403-822) (P21802 402-821): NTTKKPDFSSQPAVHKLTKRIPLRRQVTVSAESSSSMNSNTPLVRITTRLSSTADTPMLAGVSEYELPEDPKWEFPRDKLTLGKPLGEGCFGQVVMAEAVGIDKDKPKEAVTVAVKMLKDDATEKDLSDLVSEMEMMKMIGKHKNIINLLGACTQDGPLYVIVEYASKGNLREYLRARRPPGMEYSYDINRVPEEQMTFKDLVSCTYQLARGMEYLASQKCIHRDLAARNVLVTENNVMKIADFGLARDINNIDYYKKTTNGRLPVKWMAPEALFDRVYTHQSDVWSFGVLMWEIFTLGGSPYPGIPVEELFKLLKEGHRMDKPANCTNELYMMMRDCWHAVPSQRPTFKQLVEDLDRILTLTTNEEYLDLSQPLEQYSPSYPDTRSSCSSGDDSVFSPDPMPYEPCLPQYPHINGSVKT
Summary of the method: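 His-tagged FGFR2 cytoplasmic domain ([…]) with 100 nM Alexa Fluor 647-poly-GT peptide and 15 μM ATP in HEPES/MgCl2/Triton buffer, pH 7.5, 2% DMSO, 20 min at 22 °C. EDTA-quenched, Eu-PY20 antibody added, TR-FRET read after 60 min.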

[4] = molecular target: recombinant human FGFR3 (amino acids R397-T806) (Homo sapiens (Human), UniProt P22607); assay: FGFR3 enzyme activity assay (LanthaScreen TR-FRET); type: biochemical; settings: 25 μM ATP, 10 min incubation at 22° C., average of multiple determinations if made, read-out: FGFR3 Enz FRET IC50
Chain of recombinant human FGFR3 (amino acids R397-T806) (P22607 397-806): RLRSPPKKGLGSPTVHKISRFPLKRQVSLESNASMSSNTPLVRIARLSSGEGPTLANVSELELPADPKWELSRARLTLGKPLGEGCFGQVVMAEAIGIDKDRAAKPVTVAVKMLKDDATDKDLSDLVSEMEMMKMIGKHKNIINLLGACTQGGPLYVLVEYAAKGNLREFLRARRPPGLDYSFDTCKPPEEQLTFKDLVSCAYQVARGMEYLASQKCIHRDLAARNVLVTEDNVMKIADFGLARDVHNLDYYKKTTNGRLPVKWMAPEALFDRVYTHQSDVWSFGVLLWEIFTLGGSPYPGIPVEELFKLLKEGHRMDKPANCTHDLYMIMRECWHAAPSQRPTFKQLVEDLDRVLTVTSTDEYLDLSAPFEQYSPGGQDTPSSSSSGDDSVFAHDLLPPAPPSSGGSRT
Summary of the method: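 GST-HIS6-tagged human FGFR3 (R397-T806) was reacted with 100 nM Alexa Fluor 647-Poly-GT substrate and 25 μM ATP plus compound in HEPES/MgCl2/Triton buffer, pH 7.5, 2% DMSO, for 10 min at 22 °C.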

[5] = molecular target: recombinant human FGFR1 catalytic domain (amino acids 308-731) (Homo sapiens (Human), UniProt P11362); assay: FGFR1 enzyme activity assay (LanthaScreen TR-FRET); type: biochemical; settings: 20 min incubation at 22° C., average of multiple determinations if made, read-out: FGFR1 Enz FRET IC50
Chain of recombinant human FGFR1 catalytic domain (amino acids 308-731) (P11362 other isoform, or with tags, fused parts or gaps): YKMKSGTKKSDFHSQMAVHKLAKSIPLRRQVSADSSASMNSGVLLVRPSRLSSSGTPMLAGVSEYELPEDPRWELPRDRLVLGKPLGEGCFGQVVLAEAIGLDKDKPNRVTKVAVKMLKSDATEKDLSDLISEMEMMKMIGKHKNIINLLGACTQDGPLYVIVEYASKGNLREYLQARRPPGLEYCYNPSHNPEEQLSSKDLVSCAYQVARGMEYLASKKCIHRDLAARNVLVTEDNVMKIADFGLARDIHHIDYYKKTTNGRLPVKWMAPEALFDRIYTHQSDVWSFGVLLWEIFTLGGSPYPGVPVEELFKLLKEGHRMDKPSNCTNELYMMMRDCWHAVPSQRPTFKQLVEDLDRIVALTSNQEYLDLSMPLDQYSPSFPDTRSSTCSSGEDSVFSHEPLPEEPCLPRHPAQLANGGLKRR
Summary of the method: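 His-tagged FGFR1 kinase domain with 100 nM Alexa Fluor 647-poly-GT peptide and ATP in pH 7.5 HEPES/MgCl2 buffer with 2% DMSO, 20 min at 22 °C. Quenched with EDTA plus 2 nM Eu-PY20 antibody and read after 60 min. IC50 comes from a 4-parameter fit of percent of control.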

[6] = molecular target: phosphorylated FGFR3 (SEQ ID NO: 5, amino acids 449 to 759) (Homo sapiens (Human), UniProt P22607); assay: FGFR enzyme binding assay (HTRF tracer displacement), FGFR3; settings: 5 nM phosphorylated FGFR3, average of multiple determinations if made
Chain of phosphorylated FGFR3 (SEQ ID NO: 5, amino acids 449 to 759) (P22607 449-759): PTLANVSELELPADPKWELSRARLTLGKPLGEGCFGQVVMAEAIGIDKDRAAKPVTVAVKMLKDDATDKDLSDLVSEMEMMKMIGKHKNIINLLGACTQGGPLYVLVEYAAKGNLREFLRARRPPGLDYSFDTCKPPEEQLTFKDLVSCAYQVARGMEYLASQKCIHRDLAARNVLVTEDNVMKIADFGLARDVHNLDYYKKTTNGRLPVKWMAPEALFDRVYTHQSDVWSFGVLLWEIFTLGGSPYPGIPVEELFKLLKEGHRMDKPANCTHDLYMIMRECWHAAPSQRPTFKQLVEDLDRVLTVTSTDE
Summary of the method: as §1

[7] = molecular target: FGFR3 (SEQ ID NO: 5, amino acids 449-759) (Homo sapiens (Human), UniProt P22607); assay: LC/MS FGFR3 kobs assay (covalent protein modification); type: binding; settings: 500 nM FGFR3, 3 μM compound
Chain of FGFR3 (SEQ ID NO: 5, amino acids 449-759) (P22607 449-759): as above
Summary of the method: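 The observed rate constant kobs comes from an exponential decay fit of percent unmodified kinase over time. Covalent modification was quantified by Q-TOF LC/MS of formic acid-quenched samples, normalized against DMSO controls.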

Chain of dephosphorylated FGFR1 (SEQ ID NO: 1, amino acids 458 to 765) (P11362 458-765): as the sequence (P11362 458-765) above

Row | SMILES | IC50 [1] | FGFR1 Enz kobs [2] | IC50 [3] | IC50 [4] | IC50 [5] | IC50 [6] | FGFR3 Enz kobs [7]
1 | C=CC(=O)N1CCC(C(=O)N2CC(n3cc(-c4cc(OC)c5c(C#N)cnn5c4)cn3)C2)CC1 [Example 75, 6-(1-(1-(1-acryloylpiperidine-4-carbonyl)azetidin-3-yl)-1H-pyrazol-4-yl)-4-methoxypyrazolo[1,5-a]pyridine-3-carbonitrile] | 0.12 µM | 0.00081 min⁻¹ | 0.014 µM | 0.013 µM | 0.039 µM | 0.022 µM | 0.002 min⁻¹
2 | C=CC(=O)N[C@H]1C[C@@H](C(=O)N2CC(n3cc(-c4cc(OC)c5c(C#N)cnn5c4)cn3)C2)C1 [Example 80, N-((1s,3s)-3-(3-(4-(3-cyano-4-methoxypyrazolo[1,5-a]pyridin-6-yl)-1H-pyrazol-1-yl)azetidine-1-carbonyl)cyclobutyl)acryl-amide] | 0.174 µM | 0.00024 min⁻¹ | 0.007 µM | 0.007 µM | 0.026 µM | 0.022 µM | 0.00111 min⁻¹
3 | C=CC(=O)N1CCN(c2ccc(-c3cc(OC)c4c(C#N)cnn4c3)cc2)CC1 [Example 99, 6-(4-(4-acryloylpiperazin-1-yl)phenyl)-4-methoxypyrazolo[1,5-a]pyridine-3-carbonitrile] | 0.047 µM | 0.00044 min⁻¹ | 0.005 µM | 0.003 µM | 0.013 µM | 0.005 µM | 0.00353 min⁻¹
4 | C=CC(=O)N1CCC(C(=O)N2CCN(c3ccc(-c4cc(OC)c5c(C#N)cnn5c4)cn3)CC2)CC1 [Example 109, 6-(6-(4-(1-acryloylpiperidine-4-carbonyl)piperazin-1-yl)pyridin-3-yl)-4-methoxypyrazolo[1,5-a]pyridine-3-carbonitrile] | 0.056 µM | 0.0006 min⁻¹ | 0.004 µM | 0.006 µM | 0.012 µM | 0.008 µM | 0.00352 min⁻¹
5 | C=CC(=O)N1CC[C@@H](C(=O)N2CCN(c3ccc(-c4cc(OC)c5c(C#N)cnn5c4)cn3)CC2)C1 [Example 110, (R)-6-(6-(4-(1-acryloylpyrrolidine-3-carbonyl)piperazin-1-yl)pyridin-3-yl)-4-methoxypyrazolo[1,5-a]pyridine-3-carbonitrile] | 0.058 µM | 0.00068 min⁻¹ | 0.005 µM | 0.006 µM | 0.016 µM | 0.008 µM | 0.00626 min⁻¹
6 | C=CC(=O)N1CC(C(=O)N2CCN(c3ncc(-c4cc(OC)c5c(C#N)cnn5c4)cn3)CC2)C1 [Example 133, 6-(2-(4-(1-acryloylazetidine-3-carbonyl)piperazin-1-yl)pyrimidin-5-yl)-4-methoxypyrazolo[1,5-a]pyridine-3-carbonitrile] | 2.93 µM | 0.00274 min⁻¹ | 0.063 µM | 0.264 µM | 0.119 µM | 0.16 µM | 0.02206 min⁻¹
7 | COc1cc(-c2cnn(C3CN(CC4CN(C(=O)/C=C/CN5CCCCC5)C4)C3)c2)cn2ncc(C#N)c12 [Example 149, (E)-4-methoxy-6-(1-(1-((1-(4-(piperidin-1-yl)but-2-enoyl)azetidin-3-yl)methyl)azetidin-3-yl)-1H-pyrazol-4-yl)pyrazolo[1,5-a]pyridine-3-carbonitrile] | 0.229 µM | 0.00121 min⁻¹ | 0.006 µM | 0.004 µM | 0.039 µM | 0.033 µM | 0.00455 min⁻¹
8 | C=CC(=O)NC1CCN(C(=O)c2ccc(-c3cc(OC)c4c(C#N)cnn4c3)cc2)CC1 [Example 165, N-(1-(4-(3-cyano-4-methoxypyrazolo [1,5-a]pyridin-6-yl)benzoyl)piperidin-4-yl)acrylamide] | 0.8 µM | 0.00005 min⁻¹ | 0.018 µM | 0.015 µM | 0.062 µM | 0.223 µM | 0.0002 min⁻¹
